The text below walks through data of article PMC6381024, “Probing Anti-inflammatory Properties Independent of NF-κB Through Conformational Constraint of Peptide-Based Interleukin-1 Receptor Biased Ligands” (Frontiers in Chemistry, 2019).

The subject of one assay is p38 MAPK. Nature of the assay: IL-1β-induced p38 MAPK phosphorylation, Western blot in RAW Blue cells. Format: cell-based. Also noted: key to Western Blot p38 (heatmap grade of inhibition): 0: No effect; No effect 01234 Maximum inhibition/efficacy; No effect 01234 Maximum inhibition/efficacy; No effect 01234 Maximum inhibition/efficacy; 4: Maximum inhibition/efficacy. The following applies: for Western Blot p38 (heatmap grade of inhibition): RAW Blue cells, peptide 10^-6 M or Kineret 1.0 mg/mL 30 min, then IL-1β 100 ng/mL 15 min; for Inhibition of IL-1β-induced p38 phosphorylation: RAW-blue cells, 10^-6 M, 30 min, then IL-1β 15 min. The method, then: RAW Blue cells (Invivogen) were grown under standard conditions (37°C, 5% CO2) and maintained under passage number 15. Cells were equilibrated with 1, 5, or 6 (10^−6M) or Kineret (1.0 mg/mL) for 30 min, after which time they were exposed to IL-1β (100 ng/mL) for 15 min. Cells were harvested and lysed on ice for 30 min using a radioimmunoprecipitation assay buffer (Cell Signaling) supplemented with 1 mM phenylmethylsulfonyl fluoride (PMSF) and cOmplete™ EDTA-free protease inhibitor cocktail (Roche, Mannheim, Germany, prepared according to the manufacturer's instructions). Protein concentrations were determined using a Bradford protein assay (Bio-Rad) on 96-well plates with a microplate reader (EnVision Multilabel reader) measuring OD at […]. Bovine serum albumin serial dilutions were used to generate a standard curve. Lysates were then mixed with 4X reducing sample buffer (Bio-Rad).
Lysates were loaded (30 μg protein per well) in a 5% acrylamide stacking gel, and samples were electrophoresed in a 12% acrylamide resolving gel for 1.5 h at 120 V, followed by a 1 h transfer onto polyvinylidene difluoride (PDVF) membranes at 100 V. Membranes were blocked and incubated with 1:1,000 dilution of primary antibody and 1:20,000 dilution of secondary antibodies according to the manufacturer's instructions. Antibodies used were for phospho-p38 MAPK (Cell Signaling, #9211), p38 MAPK (Cell Signaling, #9212), SAPK/JNK (Cell Signaling, #9252), phospho-SAPK/JNK (Cell Signaling, #9251), ROCK2 (Thermo Fisher Scientific PA5-21131), phospho-ROCK2 (Thermo Fisher Scientific PA5-34895), and goat anti-rabbit conjugated to horseradish peroxidase (Abcam, ab6721). Membranes were imaged using an Amersham Imager 600 (GE Healthcare) using Clarity Western ECL Substrate (Bio-Rad). The intensity of protein bands was quantified using ImageJ and standardized using total (phosphorylated + non-phosphorylated) protein content. Data are representative of three independent experiments.
Figure 7 The effects of peptides 1, 5, and 6 on IL-1β-induced phosphorylation of JNK, ROCK2, and p38. Graphical representations of band density analysis of Western Blots, sorted into columns based on protein of interest (JNK, ROCK2, or p38) and rows by peptide configuration [(3R-) or (3S)]. RAW-blue cells were pretreated with peptides 1, 5, 6, Kineret, or vehicle for 30 min and then stimulated with IL-1β for 15 min. Images of representative Western Blots can be found in the Supplementary Figure 1. Results shown are the average of 3 independent experiments: ^*p < 0.05, ^**p < 0.01, ^***p < 0.001, ^****p < 0.0001 compared to group treated only with IL-1β. Treatment groups that are not labeled with asterisks are statistically non-significant compared to group treated only with IL-1β.
For orientation: Immunoblotting shows a protein as a band on a membrane.

The test system of the next assay is NF-κB. Nature of the assay: NF-κB QUANTI-Blue assay (secreted alkaline phosphatase reporter) in HEK-Blue IL-33/IL-1β cells. Format: cell-based. Also noted: key to Nf-κB (heatmap grade of inhibition): 0: No effect; No effect 01234 Maximum inhibition/efficacy; No effect 01234 Maximum inhibition/efficacy; No effect 01234 Maximum inhibition/efficacy; 4: Maximum inhibition/efficacy. As to conditions: for Nf-κB (heatmap grade of inhibition): HEK-Blue cells, peptide 10^-6 M or Kineret 1.0 mg/mL 30 min, then IL-1β 100 ng/mL 4 h, QUANTI-Blue. The method, then:
HEK-Blue IL-33/IL-1β cells (InvivoGen) were pretreated with peptides 1, 5, or 6 (10^−6M) or Kineret (1.0 mg/mL) for 30 min, followed by treatment with a constant concentration of IL-1β (100 ng/mL), and then incubated at 37°C for 4 h. Levels of secreted alkaline phosphatase in cell culture supernatant were determined using the QUANTI-Blue assay, according to the manufacturer's instructions (InvivoGen). Alkaline phosphatase activity was assessed by measuring the optical density (OD) at 620–655 nm with a micro plate reader (EnVision Multilabel reader; PerkinElmer, Waltham, MA). Data are representative of 3 experiments (each with n = 4 per treatment group).
Figure 6 The effects of peptides 1, 5, and 6 on IL-1-induced NF-κB signaling. NF-κB activation was quantified on HEK-blue cells using the QUANTI-blue assay, which spectroscopically detects secreted alkaline phosphatase, a reporter product from the transcription of the NF-κB gene. HEK-blue cells were pre-incubated with peptides 1, 5, and 6 or vehicle, then stimulated with IL-1β for 4 h. Data shown represents the average of 3 experiments, each with n = 4 per treatment group. ^****p < 0.0001 compared to group treated only with IL-1β. Treatment groups that are not labeled with asterisks are statistically non-significant compared to group treated only with IL-1β.

For the substance “Kineret: FDA-approved recombinant IL-1 receptor antagonist”, in the assay with p38 MAPK, the “Western Blot p38 (heatmap grade of inhibition)” value came to 4. Moreover, the “Nf-κB (heatmap grade of inhibition)” value with NF-κB is 4. Further, the “Inhibition of IL-1-induced NF-κB signaling” value in the assay with NF-κB (HEK-blue cells, peptide 10^-6 M or Kineret 1.0 mg/mL, IL-1β 4 h, QUANTI-blue) is listed as “inhibited NF-κB”.
Turning to “H-D-Arg-D-Tyr-(R)-Agl-(S)-Val-D-Glu-D-Leu-D-Ala-NH2 [[(3R)-Agl^3-(S)-Val^4]-1]”, in the assay with p38 MAPK, the “Western Blot p38 (heatmap grade of inhibition)” value worked out at 4 and the “Inhibition of IL-1β-induced p38 phosphorylation” value was “inhibited most effectively”. In addition, in the assay with NF-κB, the “Nf-κB (heatmap grade of inhibition)” value amounted to 0.
On to “H-D-Arg-D-Tyr-D-Thr-D-Val-D-Glu-D-Leu-D-Ala-NH2 [Peptide 1]”, for which, in the assay on p38 MAPK, the “Western Blot p38 (heatmap grade of inhibition)” value was 4 and the “Inhibition of IL-1β-induced p38 phosphorylation” value is “inhibited the effects of all three kinases”. In addition, in the assay with NF-κB, the “Nf-κB (heatmap grade of inhibition)” value came to 0.
In the case of “H-D-Arg-D-Tyr-(3R,4S)-Hgl-(S)-Val-D-Glu-D-Leu-D-Ala-NH2 [[(3R,4S)-Hgl^3-(S)-Val^4]-1]”, the “Western Blot p38 (heatmap grade of inhibition)” value in the assay on p38 MAPK was 2. Further, the “Nf-κB (heatmap grade of inhibition)” value in the assay on NF-κB came to 0.
Turning to “H-D-Arg-D-Tyr-(3R,4S)-Hgl-D-Val-D-Glu-D-Leu-D-Ala-NH2 [[(3R,4S)-Hgl^3]-1]”, in the assay with p38 MAPK, the “Western Blot p38 (heatmap grade of inhibition)” value is 4 and the “Inhibition of IL-1β-induced p38 phosphorylation” value is “inhibited most effectively”. For the same substance, the “Nf-κB (heatmap grade of inhibition)” value in the assay on NF-κB was determined as 0.
As for “H-D-Arg-D-Tyr-(3R,4R)-Hgl-(S)-Val-D-Glu-D-Leu-D-Ala-NH2 [[(3R,4R)-Hgl^3-(S)-Val^4]-1]”, the “Western Blot p38 (heatmap grade of inhibition)” value in the assay on p38 MAPK came to 3. Also, the “Nf-κB (heatmap grade of inhibition)” value in the assay on NF-κB is 0.
The like results for “H-D-Arg-D-Tyr-(3S,4R)-Hgl-D-Val-D-Glu-D-Leu-D-Ala-NH2 [[(3S,4R)-Hgl^3]-1]” were, in that order, 3 and 0.
Turning to “H-D-Arg-D-Tyr-(R)-Agl-D-Val-D-Glu-D-Leu-D-Ala-NH2 [[(3R)-Agl^3]-1]”, in the assay with p38 MAPK, the “Western Blot p38 (heatmap grade of inhibition)” value came to 0 and the “Inhibition of IL-1β-induced p38 phosphorylation” value was “inactive”. Moreover, the “Nf-κB (heatmap grade of inhibition)” value with NF-κB is 0.
With “H-D-Arg-D-Tyr-(3R,4R)-Hgl-D-Val-D-Glu-D-Leu-D-Ala-NH2 [[(3R,4R)-Hgl^3]-1]”, in the assay on p38 MAPK, the “Western Blot p38 (heatmap grade of inhibition)” value worked out at 0 and the “Inhibition of IL-1β-induced p38 phosphorylation” value was “inactive”. Further, the “Nf-κB (heatmap grade of inhibition)” value in the assay with NF-κB amounted to 0.
Take “H-D-Arg-D-Tyr-(S)-Agl-(S)-Val-D-Glu-D-Leu-D-Ala-NH2 [[(3S)-Agl^3-(S)-Val^4]-1]”: the “Western Blot p38 (heatmap grade of inhibition)” value with p38 MAPK was 2. The “Nf-κB (heatmap grade of inhibition)” value with NF-κB was found to be 0.
On to “H-D-Arg-D-Tyr-(S)-Agl-D-Val-D-Glu-D-Leu-D-Ala-NH2 [[(3S)-Agl^3]-1]”, for which, in the assay with p38 MAPK, the “Western Blot p38 (heatmap grade of inhibition)” value is reported as 0 and the “Inhibition of IL-1β-induced p38 phosphorylation” value was “inactive”. In the assay on NF-κB, the “Nf-κB (heatmap grade of inhibition)” value is on record as 0.
